Source: patent US8703951B2, “Synthesis of 4H-benzo[D]pyrrolo[1,2-A]thiazoles and indolizino[6,7-b]indole derivatives and their use as antitumor therapeutic agents” (Academia Sinica, priority 2011, dated 2014)
Read-outs that look alike come from different tables or passages of the source.

Key:
[1] = tested on: non-small cell lung carcinoma H1299; test: In vitro cytotoxicity, Alamar blue assay, H1299; format: cell-based, human
Method: (§1) Prostate cancer PC3, non-small cell lung carcinoma cells H1299, and human glioma cells U87 were purchased from the American Type Culture Collection (Rockville, Md.). OECM-1 (human gingival squamous cell carcinoma cells) was obtained from Dr C.-L. Meng (National Defense Medical College, Taiwan).^22
(§2) In preparation for in vitro cytotoxicity assays, cells were cultured at an initial density 2−5×10^4 cells per milliliter. They were maintained in a 5% CO2-humidified atmosphere at 37° C. in RPMI medium 1640 (GIBCO/BRL) containing penicillin (100 units/mL), streptomycin (100 μg/mL, GIBCO/BRL), and 5% heat-inactivated FBS. For cells grown in suspension (such as CCRF-CEM and its sublines), cytotoxicity was measured, by using XTT microculture method^23 in 96-well microtiter plates.
(§3) The cytotoxic effects of the newly synthesized compounds were determined in T-cell acute lymphocytic leukemia (CCRF-CEM) and their resistant subcell lines (CCRF-CEM/Taxol and CCRF-CEM/VBL) by the XTT assay^24 and human solid tumor cells (i.e. breast carcinoma MX-1 and colon carcinoma HCT-116) by the SRB assay^25 in a 72 h incubation using a microplate spectrophotometer as described previously.^25 After the addition of phenazine methosulfate-XTT solution, incubated at 37° C. for 6 h and absorbance at 450 and 630 nm was detected on a microplate reader (EL 340). The cytotoxicity of the newly synthesized compounds against non-small cell lung carcinoma H1299, prostate cancer PC3, oral cancer OECM-1 and glioma U87 were determined by the Alamar blue assay^26 in a 72 h incubation using a microplate spectrophotometer as described previously. After the addition of alamar blue solution, it was incubated at 37° C. for 6 h. Absorbance at 570 and 600 nm was detected on a microplate reader. IC50 values were determined from dose-effect relationship at six or seven concentrations of each drug using the CompuSyn software by Chou and Martin^27 based on the median-effect principle and plot.^28,29 Ranges given for Cisplatin were mean±SE (n=4).

prostate cancer PC3 = test: In vitro cytotoxicity, Alamar blue assay, PC3; format: cell-based, human; settings: Table 6, 72 h
Method: as §1, §2, §3

[2] = tested on: human lymphoblastic leukemia (CCRF-CEM); test: In vitro cytotoxicity, XTT assay, CCRF-CEM; format: cell-based
Excerpt: (§4) Human colon carcinoma HCT-116 cells and human prostate adenocarcinoma PC-3 cells were obtained from American Type Culture Collection (ATCC, Rockville, Md.). Human mammary carcinoma (MX-1) tumor cells were obtained from MSKCC cell bank. The CCRF-CEM human lymphoblastic leukemia cells and their vinblastine resistant subline (CCRF-CEM/VBL, 680-fold resistance in vitro) were obtained from Dr. William Beck of the University of Illinois, Chicago, and CCRF-CEM/Taxol (330-fold resistance in vitro). Resistant cells CCRF-CEM/taxol were produced by exposing the parent cells to increasing sublethal concentration (IC50-IC90) of paclitaxel for six months.
as §2, §3

linearized pBR322DNA = test: DNA cross-linking, alkaline agarose gel shift assay; format: biochemical; settings: 1, 10, and 20 μM; FIG. 8
Method: Formation of DNA cross-linking was analyzed by alkaline agarose gel electrophoresis assay. […] The reaction mixture was incubated at 37° C. for 2 h. At the end of reaction, the plasmid DNA was linearized by digestion with BamHI and followed by precipitation with ethanol. The DNA pellets were dissolved and denatured in alkaline buffer (0.5 N NaOH-10 mM EDTA). An aliquot of 20 μL of DNA solution (1000 ng) was mixed with 4 μL of 6× alkaline loading dye and then electrophoretically resolved on a 0.8% alkaline agarose gel with NaOH-EDTA buffer at 4° C. The electrophoresis was carried out at 18 V for 22 h. After staining the gels with an ethidium bromide solution, the DNA was then visualized under UV light.

oral cancer OECM-1 = test: In vitro cytotoxicity, Alamar blue assay, OECM-1; format: cell-based, human
Method: as §1, §2, §3

CCRF-CEM/VBL = test: In vitro cytotoxicity, XTT assay, CCRF-CEM/VBL; format: cell-based, human; settings: Table 5; for IC50: vinblastine-resistant subline, XTT, 72 h, read-out: Cell Growth inhibition (IC50 μM) CCRF-CEM/VBL; for fold of cross-resistant vs IC50 of the parent cell line, CCRF-CEM/VBL: number in brackets
Excerpt: as §4, §2, §3

CCRF-CEM/Taxol = test: In vitro cytotoxicity, XTT assay, CCRF-CEM/Taxol; format: cell-based, human; settings: Table 5; for IC50: Taxol-resistant subline, XTT, 72 h, read-out: Cell Growth inhibition (IC50 μM) CCRF-CEM/Taxol; for fold of cross-resistant vs IC50 of the parent cell line, CCRF-CEM/Taxol: number in brackets
Excerpt: as §4, §2, §3

glioma U87 = test: In vitro cytotoxicity, Alamar blue assay, U87; format: cell-based, human
Method: as §1, §2, §3

colon carcinoma HCT-116 = test: In vitro cytotoxicity, SRB assay, HCT-116; format: cell-based, human
Excerpt: as §4, §2, §3

breast carcinoma MX-1 = test: In vitro cytotoxicity, SRB assay, MX-1; format: cell-based, human
Excerpt: as §4, §2, §3

[3] = Homo sapiens, NCI-H1299, Table 6, 72 h
[4] = Homo sapiens, CCRF-CEM, Table 5, 72 h incubation, read-out: Cell Growth inhibition (IC50 μM) CCRF-CEM
[5] = Homo sapiens, OECM1, Table 6, 72 h
[6] = Homo sapiens, CCRF-CEM, Table 7, 72 h, read-out: IC50 (μM) CCRF/CEM
[7] = Homo sapiens, HCT-116, Table 7, 72 h
[8] = Table 5, 72 h incubation, read-out: Cell Growth inhibition (IC50 μM) CCRF-CEM

SMILES: Cn1c2c(c3ccccc31)Cc1c(CO)c(CO)c(-c3ccc(F)c(F)c3)n1C2 [Compound 26e, (3-(3,4-Difluorophenyl)-6-methyl-6,11-dihydro-5H-indolizino[6,7-b]indole-1,2-diyl)dimethanol]
- melting point: 195 to 196 °C

SMILES: COc1ccc(-c2c(CO)c(CO)c3sc4ccccc4n23)cc1 [Compound 18g, (1-(4-Methoxyphenyl)benzo[d]pyrrolo[2,1-b]thiazole-2,3-diyl)dimethanol]
- IC50 [1, 3]: 9.94 ± 1.87 µM
- IC50 (prostate cancer PC3; Homo sapiens): 8.81 ± 1.2 µM
- IC50 [2, 4]: 1.13 ± 0.09 µM
- DNA interstrand cross-linking (linearized pBR322DNA): able to bind covalently (interstrand cross-linking) with DNA
- IC50 (oral cancer OECM-1; [5]): 5 ± 0.78 µM
- IC50 (CCRF-CEM/VBL; Homo sapiens, CCRF-CEM): 2.63 ± 0.031 µM
- fold of cross-resistant vs IC50 of the parent cell line, CCRF-CEM/VBL (CCRF-CEM/VBL): 2.30 ×
- IC50 (CCRF-CEM/Taxol; Homo sapiens, CCRF-CEM): 2.17 ± 0.02 µM
- fold of cross-resistant vs IC50 of the parent cell line, CCRF-CEM/Taxol (CCRF-CEM/Taxol): 1.9 ×
- IC50 (glioma U87; Homo sapiens, Table 6, 72 h): 18.1 ± 3.71 µM

SMILES: Cc1c(CO)c(CO)c2n1Cc1c(c3ccccc3n1C)C2 [Compound 33a, [3,6-Dimethyl-6,11-dihydro-5H-indolizino[6,7-b]indole-1,2-diyl]dimethanol]
- IC50 ([1]; Homo sapiens, NCI-H1299, Table 7, 72 h): 3.96 ± 1.79 µM
- IC50 [2, 6]: 0.042 ± 0.0003 µM
- IC50 (colon carcinoma HCT-116; [7]): 0.12 ± 0.001 µM
- melting point: 200 to 201 °C
- IC50 (breast carcinoma MX-1; Homo sapiens, Table 7, 72 h): 0.22 ± 0.019 µM
- IC50 (glioma U87; Homo sapiens, Table 7, 72 h): 6.54 ± 2.16 µM

SMILES: Cn1c2c(c3ccccc31)Cc1c(CO)c(CO)c(-c3ccc(Cl)cc3)n1C2 [Compound 26d, (3-(4-Chlorophenyl)-6-methyl-6,11-dihydro-5H-indolizino[6,7-b]indole-1,2-diyl)-dimethanol]
- IC50 [2, 6]: 4.58 ± 0.378 µM
- IC50 (colon carcinoma HCT-116; [7]): 13.49 ± 0.088 µM
- melting point: 238 to 239 °C
- IC50 (breast carcinoma MX-1; Homo sapiens, Table 7, 72 h): 11.3 ± 0.42 µM

SMILES: COc1ccc(-c2c(COC(=O)NC(C)C)c(COC(=O)NC(C)C)c3sc4ccccc4n23)cc1 [Compound 20g, (1-(4-Methoxyphenyl)benzo[d]pyrrolo[2,1-b]thiazole-2,3-diyl)bis(methylene)bis(iso-propylcarbamate)]
- IC50 ([1]; Table 6, 72 h): 8.19 ± 1.74 µM
- IC50 (prostate cancer PC3): 17.5 ± 0.8 µM
- IC50 [2, 8]: 0.14 ± 0.002 µM
- DNA interstrand cross-linking (linearized pBR322DNA): able to bind covalently (interstrand cross-linking) with DNA
- IC50 (oral cancer OECM-1; Table 6, 72 h): 7.23 ± 1.57 µM
- fold of cross-resistant vs IC50 of the parent cell line, CCRF-CEM/VBL (CCRF-CEM/VBL): 1.47 ×
- IC50 (CCRF-CEM/VBL): 0.25 ± 0.008 µM
- IC50 (CCRF-CEM/Taxol): 0.17 ± 0.004 µM
- fold of cross-resistant vs IC50 of the parent cell line, CCRF-CEM/Taxol (CCRF-CEM/Taxol): 1.17 ×
- IC50 (glioma U87; Table 6, 72 h): 60.9 ± 13.4 µM

SMILES: CCNC(=O)OCc1c(COC(=O)NCC)c2sc3ccccc3n2c1-c1ccc(Cl)cc1 [Compound 19c, (1-(4-Chlorophenyl)benzo[d]pyrrolo[2,1-b]thiazole-2,3-diyl)bis(methylene)bis(ethylcarbamate)]
- IC50 ([1]; Table 6, 72 h): 4.33 ± 0.45 µM
- IC50 (prostate cancer PC3): 13.8 ± 3.78 µM
- IC50 [2, 8]: 0.21 ± 0.01 µM
- IC50 (colon carcinoma HCT-116; Table 6, 72 h): 0.7 ± 0.008 µM
- DNA interstrand cross-linking (linearized pBR322DNA): able to bind covalently (interstrand cross-linking) with DNA
- IC50 (oral cancer OECM-1; Table 6, 72 h): 11.6 ± 2.84 µM
- fold of cross-resistant vs IC50 of the parent cell line, CCRF-CEM/VBL (CCRF-CEM/VBL): 1.85 ×
- IC50 (CCRF-CEM/VBL): 0.39 ± 0.012 µM
- IC50 (CCRF-CEM/Taxol): 0.32 ± 0.003 µM
- fold of cross-resistant vs IC50 of the parent cell line, CCRF-CEM/Taxol (CCRF-CEM/Taxol): 1.52 ×
- IC50 (breast carcinoma MX-1; Table 6, 72 h): 0.91 ± 0.01 µM
- IC50 (glioma U87; Table 6, 72 h): 26 ± 2.27 µM

SMILES: Cn1c2c(c3ccccc31)Cc1c(CO)c(CO)c(-c3ccccc3)n1C2 [Compound 26b, (3-(phenyl)-6-methyl-6,11-dihydro-5H-indolizino[6,7-b]indole-1,2-diyl)dimethanol]
- melting point: 122 to 123 °C

SMILES: COc1cc(-c2c(CO)c(CO)c3sc4ccccc4n23)cc(OC)c1OC [Compound 18i, (1-(3,4,5-Trimethoxyphenyl)benzo[d]pyrrolo[2,1-b]thiazole-2,3-diyl)dimethanol]
- melting point: 160 to 161 °C

SMILES: OCc1c(CO)c2sc3ccccc3n2c1-c1ccc(F)cc1 [Compound 18b, (1-(4-Fluorophenyl)benzo[d]pyrrolo[2,1-b]thiazole-2,3-diyl)dimethanol]
- IC50 [1, 3]: 9.27 ± 1.69 µM
- IC50 (prostate cancer PC3; Homo sapiens): 13.8 ± 2.15 µM
- IC50 [2, 4]: 1.06 ± 0.04 µM
- IC50 (colon carcinoma HCT-116; Homo sapiens, HCT-116, Table 6, 72 h): 9.59 ± 0.19 µM
- IC50 (oral cancer OECM-1; [5]): 6.03 ± 1.2 µM
- IC50 (CCRF-CEM/VBL; Homo sapiens, CCRF-CEM): 3.72 ± 0.175 µM
- fold of cross-resistant vs IC50 of the parent cell line, CCRF-CEM/VBL (CCRF-CEM/VBL): 3.50 ×
- IC50 (CCRF-CEM/Taxol; Homo sapiens, CCRF-CEM): 2.56 ± 0.012 µM
- fold of cross-resistant vs IC50 of the parent cell line, CCRF-CEM/Taxol (CCRF-CEM/Taxol): 2.41 ×
- IC50 (breast carcinoma MX-1; Homo sapiens, Table 6, 72 h): 2.77 ± 0.005 µM
- IC50 (glioma U87; Homo sapiens, Table 6, 72 h): 15.5 ± 1.31 µM

SMILES: OCc1c(CO)c2sc3ccccc3n2c1-c1ccc(F)c(Cl)c1 [Compound 18f, (1-(3-Chloro-4-fluorophenyl)benzo[d]pyrrolo[2,1-b]thiazole-2,3-diyl)dimethanol]
- melting point: 178 to 179 °C

SMILES: Cn1c2c(c3ccccc31)Cc1c(CO)c(CO)c(-c3ccc(F)cc3)n1C2 [Compound 26c, (3-(4-Fluorophenyl)-6-methyl-6,11-dihydro-5H-indolizino[6,7-b]indole-1,2-diyl)dimethanol]
- melting point: 240 to 241 °C

SMILES: OCc1c(CO)c2sc3ccccc3n2c1-c1ccc(Cl)c(Cl)c1 [Compound 18e, (1-(3,4-Dichlorophenyl)benzo[d]pyrrolo[2,1-b]thiazole-2,3-diyl)dimethanol]
- melting point: 159 to 160 °C

SMILES: COc1ccc(-c2c(CO)c(CO)c3sc4ccccc4n23)cc1OC [Compound 18h, (1-(3,4-Dimethoxyphenyl)benzo[d]pyrrolo[2,1-b]thiazole-2,3-diyl)dimethanol]
- melting point: 215 to 216 °C

SMILES: CCNC(=O)OCc1c(COC(=O)NCC)c2sc3ccccc3n2c1-c1ccc(OC)cc1 [Compound 19g, (1-(4-Methoxyphenyl)benzo[d]pyrrolo[2,1-b]thiazole-2,3-diyl)bis(methylene)bis(ethylcarbamate)]
- IC50 ([1]; Table 6, 72 h): 8.85 ± 1.53 µM
- IC50 (prostate cancer PC3): 17.9 ± 3.59 µM
- IC50 [2, 8]: 0.19 ± 0.002 µM
- DNA interstrand cross-linking (linearized pBR322DNA): able to bind covalently (interstrand cross-linking) with DNA
- IC50 (oral cancer OECM-1; Table 6, 72 h): 9.39 ± 1.9 µM
- fold of cross-resistant vs IC50 of the parent cell line, CCRF-CEM/VBL (CCRF-CEM/VBL): 2.20 ×
- IC50 (CCRF-CEM/VBL): 0.42 ± 0.003 µM
- IC50 (CCRF-CEM/Taxol): 0.37 ± 0.001 µM
- fold of cross-resistant vs IC50 of the parent cell line, CCRF-CEM/Taxol (CCRF-CEM/Taxol): 1.90 ×
- IC50 (glioma U87; Table 6, 72 h): 29.5 ± 4.86 µM
